The values below come from patent US20160289186A1, “FLUOROMETHYL-SUBSTITUTED PYRROLE CA[…]” (Grunenthal GmbH, priority 2013, published 2016).

Where only a bound is given, the exact number is not on record here.

The target of this experiment is T1, Human CaV2.2 channels (Homo sapiens, UniProt Q00975).
T1 construct: expressed in transfected cells; host or cells: HEK293
T1 sequence (Q00975 whole entry): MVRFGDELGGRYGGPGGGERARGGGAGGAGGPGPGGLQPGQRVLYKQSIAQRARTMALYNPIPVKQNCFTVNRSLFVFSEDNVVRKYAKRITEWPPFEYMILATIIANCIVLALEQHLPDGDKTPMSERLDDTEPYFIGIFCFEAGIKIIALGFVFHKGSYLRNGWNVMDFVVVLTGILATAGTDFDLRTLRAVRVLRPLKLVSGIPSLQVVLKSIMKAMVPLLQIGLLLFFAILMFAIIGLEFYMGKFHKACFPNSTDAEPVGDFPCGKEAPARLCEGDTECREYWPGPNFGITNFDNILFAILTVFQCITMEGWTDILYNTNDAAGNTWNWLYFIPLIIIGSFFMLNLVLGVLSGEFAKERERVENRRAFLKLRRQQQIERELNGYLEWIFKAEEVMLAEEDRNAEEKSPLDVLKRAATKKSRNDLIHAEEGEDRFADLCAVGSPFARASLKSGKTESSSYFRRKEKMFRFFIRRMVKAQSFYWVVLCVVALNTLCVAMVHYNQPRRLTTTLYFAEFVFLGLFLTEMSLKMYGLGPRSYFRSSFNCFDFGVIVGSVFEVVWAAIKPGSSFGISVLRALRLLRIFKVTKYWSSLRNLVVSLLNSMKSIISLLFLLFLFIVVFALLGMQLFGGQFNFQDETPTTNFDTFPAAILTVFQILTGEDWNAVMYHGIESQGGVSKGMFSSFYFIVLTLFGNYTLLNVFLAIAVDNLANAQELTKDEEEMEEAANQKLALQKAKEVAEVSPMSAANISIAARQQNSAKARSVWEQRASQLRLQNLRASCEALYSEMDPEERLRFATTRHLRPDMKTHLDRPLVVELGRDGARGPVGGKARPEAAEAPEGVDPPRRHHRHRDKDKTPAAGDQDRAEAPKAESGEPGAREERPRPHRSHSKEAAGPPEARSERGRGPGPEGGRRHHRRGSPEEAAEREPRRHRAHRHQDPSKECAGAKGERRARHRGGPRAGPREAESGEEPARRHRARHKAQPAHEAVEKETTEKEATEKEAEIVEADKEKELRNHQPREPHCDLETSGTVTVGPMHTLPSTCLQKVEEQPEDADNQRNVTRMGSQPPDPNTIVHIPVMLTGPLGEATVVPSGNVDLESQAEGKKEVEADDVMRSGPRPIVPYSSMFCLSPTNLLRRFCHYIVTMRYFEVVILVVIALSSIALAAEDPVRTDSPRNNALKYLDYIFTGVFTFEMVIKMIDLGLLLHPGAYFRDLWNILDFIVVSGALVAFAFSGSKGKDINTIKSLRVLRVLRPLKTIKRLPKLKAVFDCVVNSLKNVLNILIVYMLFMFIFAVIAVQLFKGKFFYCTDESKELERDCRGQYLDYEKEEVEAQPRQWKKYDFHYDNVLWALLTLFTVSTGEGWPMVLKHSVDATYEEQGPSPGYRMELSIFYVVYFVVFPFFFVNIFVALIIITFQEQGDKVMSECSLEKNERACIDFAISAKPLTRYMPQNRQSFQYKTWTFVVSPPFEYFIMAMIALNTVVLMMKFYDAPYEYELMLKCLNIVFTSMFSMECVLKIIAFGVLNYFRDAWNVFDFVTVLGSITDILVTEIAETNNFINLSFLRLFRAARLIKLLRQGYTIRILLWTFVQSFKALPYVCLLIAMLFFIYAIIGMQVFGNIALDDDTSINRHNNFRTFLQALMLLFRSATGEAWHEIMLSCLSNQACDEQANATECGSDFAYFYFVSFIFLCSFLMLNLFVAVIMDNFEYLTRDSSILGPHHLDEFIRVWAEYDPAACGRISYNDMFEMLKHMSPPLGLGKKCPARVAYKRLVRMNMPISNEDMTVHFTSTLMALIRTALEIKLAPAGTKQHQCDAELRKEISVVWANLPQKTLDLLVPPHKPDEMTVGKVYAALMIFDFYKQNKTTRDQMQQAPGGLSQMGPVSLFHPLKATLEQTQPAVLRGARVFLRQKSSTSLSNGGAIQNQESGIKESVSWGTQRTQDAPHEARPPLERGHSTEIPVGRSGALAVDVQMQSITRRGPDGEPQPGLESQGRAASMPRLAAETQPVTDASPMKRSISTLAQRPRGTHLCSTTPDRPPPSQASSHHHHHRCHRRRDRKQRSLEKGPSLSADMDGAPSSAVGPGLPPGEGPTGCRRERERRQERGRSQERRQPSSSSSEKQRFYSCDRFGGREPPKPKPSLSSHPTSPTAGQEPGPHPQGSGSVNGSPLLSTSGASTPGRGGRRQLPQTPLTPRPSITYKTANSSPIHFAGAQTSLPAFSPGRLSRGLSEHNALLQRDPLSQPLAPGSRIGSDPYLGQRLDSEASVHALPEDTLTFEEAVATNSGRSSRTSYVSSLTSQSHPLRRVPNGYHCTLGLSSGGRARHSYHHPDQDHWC
T1 sequence (P54284 whole entry, further chain): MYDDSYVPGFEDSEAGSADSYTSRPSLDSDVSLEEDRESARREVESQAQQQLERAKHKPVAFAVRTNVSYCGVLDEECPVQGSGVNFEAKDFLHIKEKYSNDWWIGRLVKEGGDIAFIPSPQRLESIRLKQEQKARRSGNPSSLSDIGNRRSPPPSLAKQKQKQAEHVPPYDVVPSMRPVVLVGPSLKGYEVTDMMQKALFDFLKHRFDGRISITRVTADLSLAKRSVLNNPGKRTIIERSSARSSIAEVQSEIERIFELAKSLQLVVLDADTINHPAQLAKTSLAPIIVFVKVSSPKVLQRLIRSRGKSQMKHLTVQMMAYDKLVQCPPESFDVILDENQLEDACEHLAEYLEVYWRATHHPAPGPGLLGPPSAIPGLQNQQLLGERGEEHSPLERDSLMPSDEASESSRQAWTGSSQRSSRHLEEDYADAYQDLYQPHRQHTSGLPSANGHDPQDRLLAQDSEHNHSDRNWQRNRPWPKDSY
T1 sequence (P54289 25-1103, further chain): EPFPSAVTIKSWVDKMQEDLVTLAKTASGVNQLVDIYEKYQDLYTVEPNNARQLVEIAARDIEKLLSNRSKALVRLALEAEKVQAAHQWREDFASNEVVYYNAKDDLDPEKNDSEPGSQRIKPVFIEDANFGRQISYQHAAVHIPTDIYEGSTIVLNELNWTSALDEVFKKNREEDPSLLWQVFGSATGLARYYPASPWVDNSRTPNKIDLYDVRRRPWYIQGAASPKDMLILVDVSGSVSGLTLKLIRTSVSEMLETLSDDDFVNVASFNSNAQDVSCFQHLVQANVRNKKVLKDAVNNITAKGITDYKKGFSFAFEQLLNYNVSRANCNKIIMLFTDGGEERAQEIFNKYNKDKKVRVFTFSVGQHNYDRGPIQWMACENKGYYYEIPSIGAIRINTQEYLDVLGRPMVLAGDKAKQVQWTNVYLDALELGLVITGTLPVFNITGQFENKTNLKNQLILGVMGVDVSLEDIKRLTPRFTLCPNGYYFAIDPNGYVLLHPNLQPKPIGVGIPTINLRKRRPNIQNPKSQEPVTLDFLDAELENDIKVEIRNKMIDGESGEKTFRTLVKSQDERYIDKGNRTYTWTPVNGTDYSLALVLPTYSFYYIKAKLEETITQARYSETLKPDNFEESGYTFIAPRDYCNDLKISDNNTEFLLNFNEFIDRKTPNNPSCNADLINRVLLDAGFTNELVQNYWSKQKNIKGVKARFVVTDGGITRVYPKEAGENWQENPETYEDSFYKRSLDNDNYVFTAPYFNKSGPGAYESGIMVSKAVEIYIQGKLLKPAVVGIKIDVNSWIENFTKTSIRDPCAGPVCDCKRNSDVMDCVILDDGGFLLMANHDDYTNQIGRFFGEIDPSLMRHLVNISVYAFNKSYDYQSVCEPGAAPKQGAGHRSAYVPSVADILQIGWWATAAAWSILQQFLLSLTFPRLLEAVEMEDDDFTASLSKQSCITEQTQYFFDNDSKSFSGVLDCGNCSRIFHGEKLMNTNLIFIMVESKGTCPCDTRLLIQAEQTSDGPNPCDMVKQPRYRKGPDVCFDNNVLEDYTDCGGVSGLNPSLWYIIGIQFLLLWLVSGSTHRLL
Put plainly: Fluorescent (FLIPR) assay for CaV2.2 channels using potassium depolarization to induce channel opening. It counts as cell-based. As to conditions: 3 μM compound; 30 mM KCl assay buffer (inactivated channel state); HEK293 cells stably expressing human CaV2.2; read-out: Activity Category: %-Inhib (CaV2.2) @3 μM @30 mM KCl. A digest of the protocol:
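HEK293 cells stably co-expressing human CaV2.2 with α2δ and β subunits plus Kir2.3, Fluo-4 loaded; compounds preincubated 15 min at 25 °C in 1 mM or 30 mM KCl buffer (inactivated state), pH 7.4. Depolarized by KCl addition; baseline-normalized peak fluorescence (ex 480/em 535 nm) gave inhibition.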
With `CN(CC(C)(C)C)C(=O)c1c(-c2ccc(Cl)cc2)cc(C(F)(F)F)n1CC1(O)CCCC1` [Example 090, 3-(4-Chlorophenyl)-N-(2,2-dimethyl-propyl)-1-[(1-hydroxy-cyclopentyl)-methyl]-N-methyl-5-(trifluoromethyl)-1H-pyrrole-2-carboxylic acid amide], the inhibition at 3 µM lay within 75 to 95%.

On to `CN(CC(C)(C)C)C(=O)c1c(-c2ccc(Cl)cc2)cc(C(F)(F)F)n1CC1CCCN1` (stereo not shown) [Example 091, 3-(4-Chlorophenyl)-N-(2,2-dimethyl-propyl)-N-methyl-1-(pyrrolidin-2-yl-methyl)-5-(trifluoromethyl)-1H-pyrrole-2-carboxylic acid amide], for which the inhibition at 3 µM was > 95%.

Turning to `Cc1c(-c2ccc(Cl)cc2)c(C(=O)N(C)CCS(C)(=O)=O)n(CC2(N)CC2)c1C(F)(F)F` [Example 093, 1-[(1-Amino-cyclopropyl)-methyl]-3-(4-chlorophenyl)-N,4-dimethyl-N-(2-methylsulfonyl-ethyl)-5-(trifluoromethyl)-1H-pyrrole-2-carboxylic acid amide], the inhibition at 3 µM lay within 75 to 95%.

As to `Cc1c(-c2ccc(Cl)cc2)c(C(=O)N(C)CCS(C)(=O)=O)n(CC2(O)CCCC2)c1C(F)(F)F` [Example 094, 3-(4-Chlorophenyl)-1-[(1-hydroxy-cyclopentyl)-methyl]-N,4-dimethyl-N-(2-methylsulfonyl-ethyl)-5-(trifluoromethyl)-1H-pyrrole-2-carboxylic acid amide], the inhibition at 3 µM is > 95%.

As for `Cc1c(-c2ccc(Cl)cc2)c(C(=O)N2CCOCC2)n(CC2(N)CC2)c1C(F)(F)F` [Example 095, [1-[(1-Amino-cyclopropyl)-methyl]-3-(4-chlorophenyl)-4-methyl-5-(trifluoromethyl)-1H-pyrrol-2-yl]-morpholin-4-yl-methanone], the inhibition at 3 µM fell in the range of 75 to 95%.

Regarding `Cc1c(-c2ccc(Cl)cc2)c(C(=O)N2CCOCC2)n(CC2(O)CCCC2)c1C(F)(F)F` [Example 096, [3-(4-Chlorophenyl)-1-[(1-hydroxy-cyclopentyl)-methyl]-4-methyl-5-(trifluoromethyl)-1H-pyrrol-2-yl]-morpholin-4-yl-methanone], the inhibition at 3 µM lay within 75 to 95%.

Take `Cc1c(-c2ccc(Cl)cc2)c(C(=O)N2CCOCC2)n(CC2CCOCC2)c1C(F)(F)F` [Example 097, [3-(4-Chlorophenyl)-4-methyl-1-(tetrahydro-pyran-4-yl-methyl)-5-(trifluoromethyl)-1H-pyrrol-2-yl]-morpholin-4-yl-methanone]: the inhibition at 3 µM is > 95%.

As to `Cc1c(-c2ccc(Cl)cc2)c(C(=O)N2CCOCC2)n(CCN2CC(F)(F)C2)c1C(F)(F)F` [Example 098, [3-(4-Chlorophenyl)-1-[2-(3,3-difluoro-azetidin-1-yl)-ethyl]-4-methyl-5-(trifluoromethyl)-1H-pyrrol-2-yl]-morpholin-4-yl-methanone], the inhibition at 3 µM was > 95%.

Consider `Cc1c(-c2ccc(Cl)cc2)c(C(=O)N2CCOCC2)n(CCS(C)(=O)=O)c1C(F)(F)F` [Example 099, [3-(4-Chlorophenyl)-4-methyl-1-(2-methylsulfonyl-ethyl)-5-(trifluoromethyl)-1H-pyrrol-2-yl]-morpholin-4-yl-methanone], for which the inhibition at 3 µM was in the range of 40 to 75%.

On to `CN(CC(C)(C)C)C(=O)c1c(-c2ccc(Cl)cc2)cc(C(F)(F)F)n1CC1(C#N)CC1` [Example 100, 3-(4-Chlorophenyl)-1-[(1-cyano-cyclopropyl)-methyl]-N-(2,2-dimethyl-propyl)-N-methyl-5-(trifluoromethyl)-1H-pyrrole-2-carboxylic acid amide], for which the inhibition at 3 µM lay in the range of 75 to 95%.

With `Cc1c(-c2ccc(Cl)cc2)c(C(=O)N2CCOC(C)(C)C2)n(C)c1C(F)(F)F` [Example 102, [3-(4-Chlorophenyl)-1,4-dimethyl-5-(trifluoromethyl)-1H-pyrrol-2-yl]-(2,2-dimethyl-morpholin-4-yl)-methanone], the inhibition at 3 µM fell in the range of 75 to 95%.

In the case of `CCn1c(C(=O)N2CCOC(C)(C)C2)c(-c2ccc(Cl)cc2)c(C)c1C(F)(F)F` [Example 103, [3-(4-Chlorophenyl)-1-ethyl-4-methyl-5-(trifluoromethyl)-1H-pyrrol-2-yl]-(2,2-dimethyl-morpholin-4-yl)-methanone], the inhibition at 3 µM is 75 to 95%.

With `Cc1c(-c2ccc(Cl)cc2)c(C(=O)N2CC3CC2CO3)n(CC(C)C)c1C(F)(F)F` (stereo not shown) [Example 104, [3-(4-Chlorophenyl)-4-methyl-1-(2-methyl-propyl)-5-(trifluoromethyl)-1H-pyrrol-2-yl]-(2-oxa-5-azabicyclo[2.2.1]heptan-5-yl)-methanone], the inhibition at 3 µM is > 95%.

Consider `Cc1c(-c2ccc(Cl)cc2)c(C(=O)N(C)CC(C)(C)C(N)=O)n(C(C)C)c1C(F)(F)F` [Example 105, N-(2-Carbamoyl-2-methyl-propyl)-3-(4-chlorophenyl)-1-isopropyl-N,4-dimethyl-5-(trifluoromethyl)-1H-pyrrole-2-carboxylic acid amide], for which the inhibition at 3 µM was 75 to 95%.

Take `Cc1c(-c2ccc(Cl)cc2)c(C(=O)N(C)CC(C)(C)C#N)n(C(C)C)c1C(F)(F)F` [Example 106, 3-(4-Chlorophenyl)-N-(2-cyano-2-methyl-propyl)-1-isopropyl-N,4-dimethyl-5-(trifluoromethyl)-1H-pyrrole-2-carboxylic acid amide]: the inhibition at 3 µM is 75 to 95%.

In the case of `Cc1cc(CN(C)C(=O)c2c(-c3ccc(Cl)cc3)c(C)c(C(F)(F)F)n2C(C)C)no1` [Example 107, 3-(4-Chlorophenyl)-1-isopropyl-N,4-dimethyl-N-[(5-methyl-isoxazol-3-yl)-methyl]-5-(trifluoromethyl)-1H-pyrrole-2-carboxylic acid amide], the inhibition at 3 µM is > 95%.

On to `Cc1c(-c2ccc(Cl)cc2)c(C(=O)N(C)C(C)C)n(C(C)C)c1C(F)(F)F` [Example 108, 3-(4-Chlorophenyl)-N,1-diisopropyl-N,4-dimethyl-5-(trifluoromethyl)-1H-pyrrole-2-carboxylic acid amide], for which the inhibition at 3 µM was > 95%.

As for `Cc1c(-c2ccc(Cl)cc2)c(C(=O)N(C)C(C)C)n(CC(C)C)c1C(F)(F)F` [Example 109, 3-(4-Chlorophenyl)-N-isopropyl-N,4-dimethyl-1-(2-methyl-propyl)-5-(trifluoromethyl)-1H-pyrrole-2-carboxylic acid amide], the inhibition at 3 µM was 75 to 95%.

Consider `Cc1c(-c2ccc(Cl)cc2)c(C(=O)N(C)CCS(C)(=O)=O)n(C(C)C)c1C(F)(F)F` [Example 110, 3-(4-Chlorophenyl)-1-isopropyl-N,4-dimethyl-N-(2-methylsulfonyl-ethyl)-5-(trifluoromethyl)-1H-pyrrole-2-carboxylic acid amide], for which the inhibition at 3 µM lay within 75 to 95%.

Turning to `Cc1c(-c2ccc(Cl)cc2)c(C(=O)N(C)Cc2ccnn2C)n(C(C)C)c1C(F)(F)F` [Example 111, 3-(4-Chlorophenyl)-1-isopropyl-N,4-dimethyl-N-[(2-methyl-2H-pyrazol-3-yl)-methyl]-5-(trifluoromethyl)-1H-pyrrole-2-carboxylic acid amide], the inhibition at 3 µM was 75 to 95%.

Regarding `Cc1c(-c2ccc(Cl)cn2)c(C(=O)N2CCOC(C)(C)C2)n(C(C)C)c1C(F)(F)F` [Example 112, [3-(5-Chloro-pyridin-2-yl)-1-isopropyl-4-methyl-5-(trifluoromethyl)-1H-pyrrol-2-yl]-(2,2-dimethyl-morpholin-4-yl)-methanone], the inhibition at 3 µM lay in the range of 40 to 75%.

Turning to `Cc1cc(CN(C)C(=O)c2c(-c3ccc(Cl)cn3)c(C)c(C(F)(F)F)n2C(C)C)no1` [Example 113, 3-(5-Chloro-pyridin-2-yl)-1-isopropyl-N,4-dimethyl-N-[(5-methyl-isoxazol-3-yl)-methyl]-5-(trifluoromethyl)-1H-pyrrole-2-carboxylic acid amide], the inhibition at 3 µM is 75 to 95%.

For the compound `Cc1c(-c2ccc(Cl)cn2)c(C(=O)N(C)Cc2ccnn2C)n(C(C)C)c1C(F)(F)F` [Example 114, 3-(5-Chloro-pyridin-2-yl)-1-isopropyl-N,4-dimethyl-N-[(2-methyl-2H-pyrazol-3-yl)-methyl]-5-(trifluoromethyl)-1H-pyrrole-2-carboxylic acid amide], the inhibition at 3 µM lay in the range of 40 to 75%.

As to `Cc1c(-c2ccc(Cl)cc2)c(C(=O)N(C)C2CCNC2=O)n(C(C)C)c1C(F)(F)F` (stereo not shown) [Example 115, 3-(4-Chlorophenyl)-1-isopropyl-N,4-dimethyl-N-(2-oxo-pyrrolidin-3-yl)-5-(trifluoromethyl)-1H-pyrrole-2-carboxylic acid amide], the inhibition at 3 µM fell in the range of 75 to 95%.

As for `Cc1c(-c2ccc(Cl)cn2)c(C(=O)N(C)CC(C)(C)C(N)=O)n(C(C)C)c1C(F)(F)F` [Example 116, N-(2-Carbamoyl-2-methyl-propyl)-3-(5-chloro-pyridin-2-yl)-1-isopropyl-N,4-dimethyl-5-(trifluoromethyl)-1H-pyrrole-2-carboxylic acid amide], the inhibition at 3 µM was in the range of 40 to 75%.

Regarding `Cc1c(-c2ccc(Cl)cn2)c(C(=O)N(C)CC(C)(C)C#N)n(C(C)C)c1C(F)(F)F` [Example 117, 3-(5-Chloro-pyridin-2-yl)-N-(2-cyano-2-methyl-propyl)-1-isopropyl-N,4-dimethyl-5-(trifluoromethyl)-1H-pyrrole-2-carboxylic acid amide], the inhibition at 3 µM is 75 to 95%.

Take `Cc1c(-c2ccc(Cl)cn2)c(C(=O)N(C)CCS(C)(=O)=O)n(C(C)C)c1C(F)(F)F` [Example 118, 3-(5-Chloro-pyridin-2-yl)-1-isopropyl-N,4-dimethyl-N-(2-methylsulfonyl-ethyl)-5-(trifluoromethyl)-1H-pyrrole-2-carboxylic acid amide]: the inhibition at 3 µM lay in the range of 40 to 75%.

Regarding `Cc1c(-c2ccc(Cl)cn2)c(C(=O)N(C)C2CCNC2=O)n(C(C)C)c1C(F)(F)F` (stereo not shown) [Example 119, 3-(5-Chloro-pyridin-2-yl)-1-isopropyl-N,4-dimethyl-N-(2-oxo-pyrrolidin-3-yl)-5-(trifluoromethyl)-1H-pyrrole-2-carboxylic acid amide], the inhibition at 3 µM lay in the range of 40 to 75%.
